In US9217014B2, “Antifungal agents and uses thereof” (Cidara Therapeutics, Inc., priority 2011, dated 2015):
Read-outs that look alike come from different tables or passages of the source. *1 amine or outer side, *2 acyl side, *3 side chain or, on linkers, in order; H or OH if unused. Where a SMILES comes first, the peptide text is derived from it. Bridges are numbered along the chain shown (N, C = ends). [ ]: non-standard residue; d: D form. The star is where a group is joined. pTerphenylCO(4''-OnC5H11) = CCCCCOc1ccc(-c2ccc(-c3ccc(C(=O)*)cc3)cc2)cc1; Orn(4R-OH,5R-OH) = O=C([C@H](C[C@@H](O)[C@@H](O)N[*:3])N[*:1])[*:2]; hTyr(3S-OH,4S-OH) = N[C@H](C(=O)O)[C@H](O)[C@@H](O)c1ccc(O)cc1; Pro(3S-OH,4S-Me) = C[C@H]1CN[C@H](C(=O)O)[C@H]1O; Hyp = O=C(O)[C@@H]1C[C@@H](O)CN1

Columns and labels:
[1] = Pharmacokinetics in beagle dogs, intravenous; type: in vivo; details: 1.4 mg/kg intravenous slow bolus, mean ± SEM, n = 4 beagle dogs
Method: The test articles were administered to beagle dogs weighing approximately 6-10 kg. Each test article was dosed at 1.4 mg/kg in aqueous saline (with or without 0.5% Tween) over course of 1-10 minutes. […] The dogs were fasted at least 12 hours prior to each dosing and offered food after the 4-hour blood sample was taken; water was withheld for 1 hour prior to and 4 hours following each dosing event. The dose for each animal was based on its most recent body weight. The test article was injected intravenously via a catheter placed in the cephalic vein as a slow bolus.
Blood was collected via the jugular vein. All blood samples (˜1 mL each) were collected into K3EDTA tubes. Following blood collection, the samples were immediately inverted several times and were held on wet ice pending centrifugation. The samples were centrifuged within ˜30 minutes of collection under refrigeration (˜5° C. for ˜10 minutes at ˜2000 g) to obtain plasma. The plasma was frozen immediately on dry ice after separation. The plasma samples were stored at approximately −70° C. until analysis.
Plasma (100 μL) was precipitated with 400 μL of 0.1% formic acid in acetonitrile containing the internal standard (100 ng/mL pneumocandin). The samples were then capped and vortexed for about 30 seconds followed by centrifugation at 14,000 rpm at room temperature for 10 minutes. Following centrifugation 200 μL of supernatant was transferred to plastic autosampler vials containing 200 μL of 0.1% formic acid in water and vortexed. Samples were then analyzed by LCMSMS.
All pharmacokinetic calculations were performed using WinNonlin version 4.1 (Pharsight Corp) by noncompartmental analysis.

[2] = Solubility in non-aqueous solvents; type: physicochemical; details: organic solvent or mixture, compound 1 as acetate salt
Method: The solubility of compound 1 (acetate salt) was also measured in non-aqueous solvents to assess this compound's suitability for formulation in non-aqueous carriers.

C. albicans R303 = experiment: mouse candidiasis infection model, IP administration, kidney fungal burden; type: in vivo
Method: The objective of these studies was to evaluate the efficacy of test compounds in the mouse candidiasis infection model. Amounts of test articles are uncorrected.
The strain, C. albicans R303 was transferred from frozen storage onto Sabauroud dextrose agar (SDA) plates and grown for ˜24 hr at 35° C. The inoculum was prepared by transferring colonies from the plate to phosphate buffered saline (PBS) and the concentration adjusted to approximately 10^6 CFU/mL with the aid of a spectrophotometer. The stock was diluted 1:9 to prepare the inoculum. Prior to each run the concentration was verified using the dilution plate count method.
Female CD-1 mice were used in this study. The animals were approximately seven-weeks-old at the start of the study and weighed about 15-30 g.
Mice were made neutropenic with IP injections of cyclophosphamide (150 mg/kg in 10 mL/kg) at 4 and 1 day before inoculation. Each animal was inoculated with the appropriate concentration by injecting 0.1 mL of inoculum into a tail vein. The test compounds were administered IP at 2 hr after infection.
In a typical procedure, the kidneys were collected from four mice in control group 1 (untreated) at 2 hr after infection, and from another four mice in control group 2 (untreated) at 24 hr after infection. Kidneys were removed aseptically from each mouse and were combined in a sterile tube. An aliquot (2 mL) of sterile PBS was added to each tube and the contents homogenized with a tissue homogenizer (Polytron 3100). Serial dilutions of the tissue homogenates were conducted and 0.1 mL aliquots were spread on SDA plates and the plates incubated at 35° C. overnight. The CFU/kidneys were determined from colony counts. Data were analyzed using one-way ANOVA with either the Tukey-Kramer Multiple Comparisons Test or Dunnett Test (GraphPad InStat version 3.06, GraphPad Software, San Diego, Calif.).
The data reported below are the average of four mice. Each run included a separate control and each is tabulated separately.

[3] = Solubility in aqueous buffers of varying pH; type: physicochemical; details: ambient temperature, compound 1 as acetate salt
Method: The solubility of compound 1 (acetate salt) was measured in aqueous buffers of varying pH to assess this compound's suitability for formulation in an aqueous carrier for administration by injection (e.g., intravenous or intramuscular injection).

`CCCCCOc1ccc(-c2ccc(-c3ccc(C(=O)N[C@H]4C[C@@H](O)[C@@H](O)NC(=O)[C@@H]5[C@@H](O)[C@@H](C)CN5C(=O)[C@H]([C@@H](C)O)NC(=O)[C@H]([C@H](O)[C@@H](O)c5ccc(O)cc5)NC(=O)[C@@H]5C[C@@H](O)CN5C(=O)[C@H]([C@@H](C)O)NC4=O)cc3)cc2)cc1` [anidulafungin, reference compound] ({pTerphenylCO(4''-OnC5H11)}-[Orn(4R-OH,5R-OH)]T[Hyp][hTyr(3S-OH,4S-OH)]T[Pro(3S-OH,4S-Me)]; lactam 1-C) gave a CI [1] of 0.0471 ± 0.00192 L/h/kg, a Vz [1] of 0.779 ± 0.0304 L/kg and a half-life ([1]; beagle, dog, in vivo, iv, 1.4 mg/kg, read-out: T ½ (converted)) of ~12 h. For the same compound, the solubility ([2]; Ethanol (EtOH)) was > 17.6 mg/mL, the solubility ([2]; Glycerol) was 1.5 mg/mL and the solubility ([2]; PEG400) was > 26.8 mg/mL. For the same compound, the solubility ([2]; Propylene glycol(PG)) was > 17.2 mg/mL, the log reduction at 1 mg/kg (C. albicans R303; Candida albicans, R303, ip, 24 h, read-out: Difference from 24-h control, Fifth run, IP 1 mg/kg) was 2.07 and the log reduction at 1 mg/kg (C. albicans R303; Candida albicans, R303, ip, 24 h, read-out: Difference from 24-h control, First run, IP 1 mg/kg) was 1.83. The log reduction at 0.5 mg/kg (C. albicans R303; Candida albicans, R303, ip, 24 h, read-out: Difference from 24-h control, Fourth run, IP 0.5 mg/kg) was 1.29, the log reduction at 1.5 mg/kg (C. albicans R303; Candida albicans, R303, ip, 24 h, read-out: Difference from 24-h control, Fourth run, IP 1.5 mg/kg) was 4.03 and the log reduction at 0.5 mg/kg (C. albicans R303; Candida albicans, R303, ip, 24 h, read-out: Difference from 24-h control, Second run, IP 0.5 mg/kg) was 0.47. The log reduction at 1.5 mg/kg (C. albicans R303; Candida albicans, R303, ip, 24 h, read-out: Difference from 24-h control, Second run, IP 1.5 mg/kg) was 2.11, the log reduction at 4.5 mg/kg (C. albicans R303; Candida albicans, R303, ip, 24 h, read-out: Difference from 24-h control, Second run, IP 4.5 mg/kg) was 3.78 and the “Mean log10 CFU/kidneys (±SEM)” value (C. albicans R303; Fifth run, IP 1 mg/kg, kidneys 24 h after infection) was 3.06 ± 0.18 log10 CFU/kidneys. For the same compound, the “Mean log10 CFU/kidneys (±SD)” value (C. albicans R303; First run, IP 1 mg/kg, neutropenic mice, kidneys 24 h after infection) was 3.37 ± 0.72 log10 CFU/kidneys, the “Mean log10 CFU/kidneys (±SEM)” value (C. albicans R303; Fourth run, IP 0.5 mg/kg, kidneys 24 h after infection) was 3.81 ± 0.19 log10 CFU/kidneys and the “Mean log10 CFU/kidneys (±SEM)” value (C. albicans R303; Fourth run, IP 1.5 mg/kg, kidneys 24 h after infection) was 1.08 ± 0.08 log10 CFU/kidneys. For the same compound, the “Mean log10 CFU/kidneys (±SEM)” value (C. albicans R303; Second run, IP 0.5 mg/kg, kidneys 24 h after infection) was 4.41 ± 0.12 log10 CFU/kidneys, the “Mean log10 CFU/kidneys (±SEM)” value (C. albicans R303; Second run, IP 1.5 mg/kg, kidneys 24 h after infection) was 2.77 ± 0.20 log10 CFU/kidneys and the “Mean log10 CFU/kidneys (±SEM)” value (C. albicans R303; Second run, IP 4.5 mg/kg, kidneys 24 h after infection) was 1.10 ± 0.38 log10 CFU/kidneys. The solubility ([3]; aqueous buffer, pH 3 (0.01M formate buffer)) was < 0.01 mg/mL, the solubility ([3]; aqueous buffer, pH 4.6 (0.1M acetate buffer)) was < 0.01 mg/mL and the solubility ([3]; aqueous buffer, pH 5.6 (0.1M acetate buffer)) was < 0.01 mg/mL. For the same compound, the solubility ([3]; aqueous buffer, pH 7.4 (0.1M phosphate buffer)) was < 0.01 mg/mL, the solubility ([3]; aqueous buffer, pH 8.5 (0.01M TRIS buffer)) was < 0.01 mg/mL and the solubility ([3]; saline or isotonic, 0.9% saline) was < 0.01 mg/mL. For the same compound, the solubility ([3]; simulated gastric fluid, pH 1 (0.1M HCl)) was < 0.01 mg/mL.
